From PMC6316187, “Synergistic AML Cell Death Induction by Marine Cytotoxin (+)-1(R), 6(S), 1’(R), 6’(S), 11(R), 17(S)-Fistularin-3 and Bcl-2 Inhibitor Venetoclax” (Marine Drugs, 2018)

Biological target: DNA methyltransferase 1 (DNMT1) (Homo sapiens, UniProt P26358)
Test: in vitro DNMT activity/inhibition assay (Active Motif), […] ng purified DNMT1, colorimetric; […] compound
Assay type: biochemical

Sequence of DNA methyltransferase 1 (DNMT1) (P26358 whole entry): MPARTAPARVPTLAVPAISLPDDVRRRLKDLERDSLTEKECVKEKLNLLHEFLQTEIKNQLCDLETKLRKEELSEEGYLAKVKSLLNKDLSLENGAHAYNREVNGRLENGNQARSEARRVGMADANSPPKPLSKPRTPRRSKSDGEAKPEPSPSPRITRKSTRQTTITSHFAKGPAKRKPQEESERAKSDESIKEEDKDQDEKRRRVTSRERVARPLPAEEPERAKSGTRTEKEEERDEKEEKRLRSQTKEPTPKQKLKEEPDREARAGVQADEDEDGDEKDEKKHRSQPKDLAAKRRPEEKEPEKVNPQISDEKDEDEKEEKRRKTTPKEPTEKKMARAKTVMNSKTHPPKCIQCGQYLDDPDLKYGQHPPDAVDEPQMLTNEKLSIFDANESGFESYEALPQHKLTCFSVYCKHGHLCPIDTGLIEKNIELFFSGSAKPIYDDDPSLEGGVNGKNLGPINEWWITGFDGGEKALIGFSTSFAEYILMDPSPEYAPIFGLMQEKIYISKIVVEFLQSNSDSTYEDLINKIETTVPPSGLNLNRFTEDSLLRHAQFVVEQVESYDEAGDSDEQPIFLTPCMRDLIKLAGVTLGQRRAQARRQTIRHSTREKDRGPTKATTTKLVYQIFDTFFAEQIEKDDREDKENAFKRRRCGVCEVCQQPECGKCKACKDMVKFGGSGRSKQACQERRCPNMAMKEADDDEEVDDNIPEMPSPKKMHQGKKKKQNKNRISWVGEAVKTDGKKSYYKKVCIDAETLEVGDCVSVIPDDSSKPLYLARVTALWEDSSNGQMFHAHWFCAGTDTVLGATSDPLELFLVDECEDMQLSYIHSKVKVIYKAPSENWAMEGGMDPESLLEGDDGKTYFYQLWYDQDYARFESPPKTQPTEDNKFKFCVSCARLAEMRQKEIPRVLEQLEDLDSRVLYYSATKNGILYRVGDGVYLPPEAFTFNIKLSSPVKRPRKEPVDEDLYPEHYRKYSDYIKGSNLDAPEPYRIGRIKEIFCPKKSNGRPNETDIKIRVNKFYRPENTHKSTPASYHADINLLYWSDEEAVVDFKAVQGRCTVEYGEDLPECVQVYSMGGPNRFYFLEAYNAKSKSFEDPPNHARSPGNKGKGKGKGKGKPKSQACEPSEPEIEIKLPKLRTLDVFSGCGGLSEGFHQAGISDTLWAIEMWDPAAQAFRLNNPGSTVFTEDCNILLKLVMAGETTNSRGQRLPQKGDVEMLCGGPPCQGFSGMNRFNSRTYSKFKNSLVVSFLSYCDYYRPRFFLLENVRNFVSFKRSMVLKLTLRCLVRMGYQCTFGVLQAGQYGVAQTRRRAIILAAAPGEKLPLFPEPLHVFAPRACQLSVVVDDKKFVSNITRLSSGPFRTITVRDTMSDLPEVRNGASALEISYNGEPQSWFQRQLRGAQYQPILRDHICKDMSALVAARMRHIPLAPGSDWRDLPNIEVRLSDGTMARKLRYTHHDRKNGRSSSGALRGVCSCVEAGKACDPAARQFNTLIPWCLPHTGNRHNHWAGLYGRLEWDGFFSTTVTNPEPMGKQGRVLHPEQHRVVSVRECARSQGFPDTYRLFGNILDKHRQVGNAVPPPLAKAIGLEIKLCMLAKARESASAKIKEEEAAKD

inhibition at 50 µM: ~25%
Structure (SMILES): COC1=C(Br)[C@H](O)[C@@]2(C=C1Br)CC(C(=O)NC[C@@H](O)COc1c(Br)cc([C@H](O)CNC(=O)C3=NO[C@]4(C=C(Br)C(OC)=C(Br)[C@@H]4O)C3)cc1Br)=NO2 [RS-F3, (+)-11(R), 17(S)-fistularin-3]
